Assay: In vivo pharmacodynamic EEG study after oral administration
Set-up: species or system Sprague-Dawley rats
Conditions: rat, 10mg/kg orally
From the text: Study to assess in vivo pharmacodynamic activity of BPTU (S1) in the CNS of rats following oral administration.
Pre-surgery: The animals were allowed a minimum period of 7 days acclimatisation on arrival in the facility.
Surgery: Male Sprague-Dawley rats were anaesthetised with isoflurane (2-5% in Oxygen at 11/min) throughout the procedure. The scalp, neck and right flank were cleared of hair using clippers and cleaned using diluted Hibitane (50% (v/v) in water). A non-steroidal anti-inflammatory agent was administered (Carprofen 5mg/kg, s.c.) and the animals placed on a homeothermic blanket (37 °C) with the head fixed in a stereotaxic frame. Incisions were made in the scalp and neck, as well as in the right flank. Blunt dissection of the abdominal muscle was then made to gain access to the peritoneal cavity. A radio transmitter (HD-S02, Data Sciences International) was implanted with the body of the transmitter placed in the peritoneal cavity and secured to the muscle wall with non-absorbable sutures through the body of the transmitter. The wires of the transmitter were passed through the muscle wall and then sub-dermally using a trochar (16G needle) to the scalp to act as EEG/EMG electrodes. The scalp was cleared of connective tissue and two bore holes were made in the skull with a trepanning drill (fronto-parietal coordinates: Bregma +2mm anterior, midline +1.0mm lateral and Lambda 0mm, +1.5mm lateral). The positive EEG electrode was attached to the anterior bore hole and the negative EEG electrode to the posterior bore hole. Both electrodes were secured in place using a suitable adhesive agent (Cyanoacrylate gel, RS components). A second set of electrodes were sutured into the nuchal muscle to act as EMG electrodes. All incisions were closed using absorbable suture. The animals were allowed to recover in a warm environment and given 5ml of saline s.c. The animals were kept singly in the cage until next day, then pair housed for the duration of post-surgical recovery (min 7 days). During the recovery period, the rats received 5 days of standard post-operative care with no further experimental procedures until the pre-operative body weight was regained. The animals were maintained on a 12/12hr light dark cycle after the surgery.
Testing: On study days, the animals were placed in recording boxes individually and EEG/EMG as well as locomotor activity were recorded for 0.5 h before and 24 h after each dosing. […]
The subsequent EEG/EMG recordings were automatically scored (see Table below for sleep stage definitions) as wake, non-REM (NREM) sleep, or REM sleep in 10 second epochs using SleepSign (Kissei Comtec, Japan).
Power spectral analysis was performed on EEG data recorded over the first 3 h. […]

CC(C)(C)c1ccccc1Oc1ncccc1NC(=O)Nc1ccc(OC(F)(F)F)cc1 [BPTU, 1-(2-(2-(tert-butyl)phenoxy)pyridin-3-yl)-3-(4-(trifluoromethoxy)phenyl)urea]
EEG power, delta band (during non-REM sleep): Significant increases
EEG power, theta band (during non-REM sleep): Significant increases
EEG power, gamma frequency band (during wake): Significant increases
changes in the EEG power spectrum (first three hours post dosing): significant changes

— patent EP4094762A1, “TREATMENT OF NEUROLOGICAL INDICATIONS” (UCL Business Ltd, priority 2021, dated 2022)
